This note sets out measurements from patent US20230381176A1, “A PHARMACEUTICAL COMPOSITION AND USE THEREOF FOR TREATMENT OF CANCER” (Ascentage Pharma (Suzhou) Co., Ltd., priority 2020, published 2023).

Assay [1] concerns OVCAR3 s.c. ovarian xenograft. Format: in vivo. As for the experimental part: (§1) A subcutaneous xenograft tumor model of human tumor immunodeficient mice was established by cell inoculation: tumor cells in logarithmic growth phase were collected, counted, resuspended in 1×PBS, and the cell suspension concentration was adjusted to 2.5-5 ×10^7/mL. The tumor cells were inoculated subcutaneously in the right side of immunodeficient mice with a 1 mL syringe ([…]), 5-10×10^6/0.2 mL/mouse. All animal experiments were strictly in accordance with the specifications for the use and management of experimental animals in GenePharma Co., Ltd. and Suzhou Ascentage Pharma Co., Ltd. The calculation of relevant parameters refers to the Chinese NMPA “Guidelines for Non-Clinical Research Techniques of Cytotoxic Anti-tumor Drugs”.
(§2) Animal body weight and tumor size were measured twice weekly during the experiment. The state of the animal and the presence or absence of death were observed every day. The growth of tumor and the effects of treatment on normal behavior of animals were monitored routinely, specifically involving experimental animal activity, feeding and drinking, weight gain or loss, eyes, clothing hair and other abnormalities. The deaths and clinical symptoms observed during the experiment were recorded in the raw data. All operations for administration and measurement of mouse body weight and tumor volume were performed in a clean bench. According to the requirements of the experimental protocol, after the end of the last administration, plasma and tumor tissues were collected, weighed and photographed. The plasma and tumor samples were frozen at −80° C. for ready-to-use.
(§3) Tumor volume (TV) is calculated as: TV=a×b^2/2, wherein a and b represent the length and width of the tumor to be measured, respectively.
(§4) The relative tumor volume (RTV) is calculated as: RTV=Vt/V1, wherein V1 is the tumor volume at the start of grouping and administration, and Vt is the tumor volume measured on the t day after administration.
(§5) Change of body weight (%)=(measured body weight−body weight at the start of grouping)/body weight at the start of grouping×100%.
(§6) A dose of drug is considered to be severely toxic if the body weight of mouse is reduced by more than 20% or the number of drug-related deaths exceeds 20%.
(§7) According to the description by Clarke R., Issues in experimental design and endpoint analysis in the study of experimental cytotoxic agents in vivo in breast cancer and other models [J]. Breast Cancer Research & Treatment, 1997, 46(2-3): 255-278, synergy analysis was evaluated using the following formula: synergy factor=((A/C)×(B/C))/(AB/C); A=RTV value of drug A alone group; B=RTV value of drug B alone group; C=RTV value of the solvent control group, and AB=RTV value of the A and B combination group.
(§8) Use of mRECIST (Gao et al., 2015) measured tumor responses included stable disease (SD), partial tumor regression (PR), and complete regression (CR), determined by comparing tumor volume change at day t to its baseline: tumor volume change (%)=(Vt−V1)/V1. The BestResponse was the minimum value of tumor volume change (%) for t≥10. For each time t, the average of tumor volume changes from t=1 to t was also calculated. BestAvgResponse was defined as the minimum value of this average for t≥10. The criteria for response (mRECIST) were adapted from RECIST criteria (Gao et al., 2015; Therasse et al., 2000) and defined as follows: mCR, BestResponse<−95% and BestAvg Response<−40%; mPR, BestResponse<−50% and BestAvgResponse<−20%; mSD, BestResponse<35% and BestAvgResponse<30%; mPD, not otherwise categorized. SD, PR, and CR were considered responders and used to calculate response rate (%). […] Body weight of animals were monitored simultaneously. The change in body weight was calculated based on the animal weight of the first day of dosing (day 1). Tumor volume and changes in body weight (%) were represented as the mean±standard error of the mean (SEM).

For assay [2], the system named is PTK2 high ovarian PDX OV2423. In words: PTK2 high ovarian PDX model OV2423, Compound 5 and carboplatin and/or paclitaxel. The assay is classed as in vivo, mouse. As for the experimental part:
as §1, §2, §3, §4, §5, §6, §7, §8

[3] abbreviates: Compound 5 100 mg/kg orally once per day, paclitaxel 10 mg/kg i.v. once a week, carboplatin 30 mg/kg i.v. once a week.
The mark [4] stands for this setting: Compound 5 50 mg/kg orally once per day, carboplatin 30 mg/kg i.p. once a week, paclitaxel 10 mg/kg i.v. once a week, 28 days.

With `Cc1cc(Nc2ncc(Cl)c(Nc3ccccc3S(=O)(=O)C(C)C)n2)c(OC(C)C)cc1C1=CCN(C2CCOCC2)CC1` [Compound 5, 5-chloro-N^2-(2-isopropoxy-5-methyl-4-(1-(tetrahydro-2H-pyran-4-yl)-1,2,3,6-tetrahydropyridin-4-yl)phenyl)-N^4-(2-(isopropylsulfonyl)phenyl)pyrimidine-2,4-diamine], in assay [1] (setting [3]), the “RTV on Day 35 after administration (mean ± standard error)” value was determined as 13.66 ± 2.88 and the “T/C on Day 35 after administration (%)” value turned out to be 85.04%. The mRECIST in assay [1] (animals per class) is 5/5 PD. The “antitumor activity (conclusion in words)” value in assay [1] (mouse, in vivo) was “minor antitumor activity”. The “Overall regression rate (ORR), %” value in assay [1] (proportion of animals with CR or PR) came to 0%. Also, in assay [1] (proportion of animals with CR, PR or SD), the “Disease control rate (DCR), %” value is 0%. Also, in assay [2] (setting [4]), the “RTV on Day 28 after administration (mean ± standard error)” value is recorded as 14.83 ± 3.19 and the “T/C on Day 28 after administration (%)” value is recorded as 78.97%. In addition, in assay [2] (animals per class), the mRECIST is on record as 2/2 PD. Moreover, the “antitumor activity (conclusion in words)” value in assay [2] (mouse, in vivo) is recorded as “minor antitumor activity”.
